Values of other authors, collected in patent US4448730A, “Hydroxybenzohydroxamic acids, benzamides and esters and related compounds as ribonucleotide reductase inhibitors” (priority 1982, dated 1984).

Experiments:
[1] = Biochemical Pharmacology 1971; cited from earlier work
[2] = test system: L1210 leukemia; conditions: National Cancer Institute; cited from earlier work
[3] = test system: RNA and protein synthesis in Ehrlich ascites tumor cells; conditions: Gale and Hynes 1968; cited from earlier work
[4] = test system: DNA, RNA and protein synthesis in cells; conditions: cited from earlier work
[5] = test system: DNA synthesis in Ehrlich ascites tumor cells; conditions: Gale and Hynes 1968; in vitro; cited from earlier work

SMILES: O=C(NO)c1ccc(O)cc1 [4-hydroxybenzoylhydroxamic acid]
- antimitogenic activity (in words) [1]: most active compounds tested
- antitumor activity in vivo against L1210 leukemia (in words) [2]: significant antitumor activity in vivo

SMILES: O=C(NO)c1ccccc1 [Benzohydroxamic acid]
- inhibition of RNA synthesis (in words) [3]: found to inhibit RNA synthesis

SMILES: O=C(NO)c1ccccc1O [salicylhydroxamic acid]
- inhibition of DNA synthesis (in words) ([4]; Gale 1966): selective inhibition of DNA synthesis
- depression of RNA and protein synthesis (in words) ([4]; cells preincubated for up to two hours): only a slight depression of RNA and protein synthesis
- inhibition of / selectivity against DNA synthesis (in words) [5]: selective inhibition of DNA synthesis
